# Experimental data published in US9821024B2, “Immunomodulatory compositions” (Sigmoid Pharma Limited, priority 2010, dated 2017).
# Tested on: NFκB
# Settings: HeLa cells; FIG. 29
compound,measurement,value
NNc1nncc2ccccc12 [Hydralazine],Concentration of maximal NFκB activation,10 µg/mL
